The values below come from US7799824B2, “Quaternary salt CCR2 antagonists” (OraPharma, Inc., priority 2004, dated 2010).

In general, inhibition refers to the drop in the measured response relative to a control, in per cent. Broadly, the IC50 is the concentration needed to halve the response being measured.

One experiment has as its system Ovalbumin-induced Allergic Rhinitis. Kind of experiment: Ovalbumin-induced allergic rhinitis in mice, therapeutic effect. The format is in vivo, BALB/c mice. To be noted: positive controls, dose not given. The method, then: BALB/c mice were sensitized by i.p. injection of OVA emulsified in alum (Day 0, 5, 14, 21). Groups of mice were each challenged by intranasal injection of OVA (Day 22-35, 38).
Control group mice received an equal volume of vehicle by intranasal injection. Nasal symptoms (number of sneezes and episodes of nose rubbing by the front paws) were counted during the 5 min period following the last intranasal injection (Day 38).
The anti-histamine Pyralimine and the mast cell-stabilizing agent Ketotifen were used as positive controls.
In the case of `CN1CCC(=C2c3ccccc3CC(=O)c3sccc32)CC1` [Ketotifen], the “inhibition of nasal symptoms (rubbing)” value is given as 81% and the “inhibition of nasal symptoms (sneezing)” value is on record as 50%.

A further experiment deals with T1, CCR2 (Homo sapiens, UniProt P41597).
T1 sequence (P41597 1-360 isoform P41597-2): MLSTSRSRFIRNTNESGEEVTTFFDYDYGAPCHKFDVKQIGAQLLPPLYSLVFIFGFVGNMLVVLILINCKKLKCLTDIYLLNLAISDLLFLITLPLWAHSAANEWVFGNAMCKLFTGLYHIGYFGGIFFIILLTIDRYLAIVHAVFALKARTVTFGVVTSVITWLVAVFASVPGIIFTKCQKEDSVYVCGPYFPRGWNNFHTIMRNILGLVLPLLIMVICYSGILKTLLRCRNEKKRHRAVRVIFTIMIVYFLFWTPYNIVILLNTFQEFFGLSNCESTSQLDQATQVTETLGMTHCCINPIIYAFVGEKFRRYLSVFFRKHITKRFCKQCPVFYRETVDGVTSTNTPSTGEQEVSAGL
The experiment can be described thus: MCP-1 Receptor Binding Assay in THP-1 Cells. To be noted: MCP-1 binding to CCR2; test concentration of 25 μM, unless indicated otherwise; read-out: % Inhibition Ligand Binding. The method in brief:
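THP-1 cells; bound radioactivity collected on filter plates and counted by scintillation. Buffer-only blanks subtracted, drug-treated values compared with vehicle; nonspecific binding defined with 1 μM unlabeled MCP-1.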
Turning to `Cc1oc(-c2ccccc2)cc1C(=O)NCc1ccc(C[N+](C)(C)C2CCOCC2)cc1` [Cpd 149, dimethyl-(4-{[(2-methyl-5-phenyl-furan-3-carbonyl)-amino]-methyl}-benzyl)-(tetrahydro-pyran-4-yl)-ammonium iodide], the inhibition at 25 µM came to 58%.

For `Cc1oc(-c2ccc(Cl)cc2)cc1C(=O)NCc1ccc(C[N+](C)(C)C2CCOCC2)cc1` [Cpd 150, [4-({[5-(4-chloro-phenyl)-2-methyl-furan-3-carbonyl]-amino}-methyl)-benzyl]-dimethyl-(tetrahydro-pyran-4-yl)-ammonium iodide], the inhibition at 25 µM was found to be 27%.

As for `Cn1cc(C(=O)Nc2ccc(C[N+](C)(C)C3CCOCC3)cc2)c2ccccc21` [Cpd 161, dimethyl-{4-[(1-methyl-1H-indole-3-carbonyl)-amino]-benzyl}-(tetrahydro-pyran-4-yl)-ammonium iodide], the inhibition at 25 µM is 33%.

Take `C[N+](C)(Cc1ccc(CNC(=O)C2=Cc3cc(Cl)c(Cl)cc3OCC2)cc1)C1CCOCC1` [Cpd 170, (4-{[(7,8-dichloro-2,3-dihydro-benzo[b]oxepine-4-carbonyl)-amino]-methyl}-benzyl)-dimethyl-(tetrahydro-pyran-4-yl)-ammonium iodide]: the inhibition at 25 µM stood at 36%.

As for `C[N+](C)(Cc1ccc(NC(=O)c2cncc(Br)c2)cc1)C1CCOCC1` [Cpd 172, {4-[(5-bromo-pyridine-3-carbonyl)-amino]-benzyl}-dimethyl-(tetrahydro-pyran-4-yl)-ammonium iodide], the inhibition at 25 µM stood at 17%.

In the case of `C[N+](C)(Cc1ccc(NC(=O)c2sc3ccccc3c2Cl)cc1)C1CCOCC1` [Cpd 174, {4-[(3-chloro-benzo[b]thiophene-2-carbonyl)-amino]-benzyl}-dimethyl-(tetrahydro-pyran-4-yl)-ammonium iodide], the inhibition at 25 µM is 52%.

Still in this experiment, the particulars now being: THP-1 cells, 0.5 nM 125I labeled MCP-1, 2 hours at 30° C.; read-out: Mean Ligand Binding IC50 (inhibition of MCP-1 binding to CCR2).
Turning to `C[N+](C)(Cc1ccc(NC(=O)c2cc3ccccc3o2)cc1)C1CCOCC1` [Cpd 152, {4-[(benzofuran-2-carbonyl)-amino]-benzyl}-dimethyl-(tetrahydro-pyran-4-yl)-ammonium iodide], the IC50 was determined as 1600 nM.

Consider `C[N+](C)(Cc1ccc(NC(=O)c2cc(-c3ccc(Cl)cc3)oc2C(F)(F)F)cc1)C1CCCCC1` [Cpd 154, (4-{[5-(4-chloro-phenyl)-2-trifluoromethyl-furan-3-carbonyl]-amino}-benzyl)-cyclohexyl-dimethyl-ammonium iodide], for which the 50% inhibitory concentration (IC50) turned out to be 4600 nM.

As for `C[N+](C)(Cc1ccc(NC(=O)c2cc3cc(Cl)ccc3o2)cc1)C1CCOCC1` [Cpd 155, {4-[(5-chloro-benzofuran-2-carbonyl)-amino]-benzyl}-dimethyl-(tetrahydro-pyran-4-yl)-ammonium iodide], the IC50 worked out at 490 nM.

Take `C[N+](C)(Cc1ccc(NC(=O)c2cc3cc(Cl)ccc3o2)cc1)C1CCCCC1` [Cpd 156, {4-[(5-chloro-benzofuran-2-carbonyl)-amino]-benzyl}-cyclohexyl-dimethyl-ammonium iodide]: the IC50 stood at 180 nM.

In the case of `C[N+](C)(Cc1ccc(NC(=O)c2cc3ccccc3o2)cc1)C1CCCCC1` [Cpd 157, {4-[(benzofuran-2-carbonyl)-amino]-benzyl}-cyclohexyl-dimethyl-ammonium iodide], the half-inhibitory concentration (IC50) stood at 690 nM.

For `Cn1c(C(=O)Nc2ccc(C[N+](C)(C)C3CCOCC3)cc2)cc2ccccc21` [Cpd 158, dimethyl-{4-[(1-methyl-1H-indole-2-carbonyl)-amino]-benzyl}-(tetrahydro-pyran-4-yl)-ammonium iodide], the IC50 stood at 400 nM.

As for `C[N+](C)(Cc1ccc(NC(=O)c2cc3cc(Cl)ccc3[nH]2)cc1)C1CCOCC1` [Cpd 159, {4-[(5-chloro-1H-indole-2-carbonyl)-amino]-benzyl}-dimethyl-(tetrahydro-pyran-4-yl)-ammonium iodide], the 50% inhibitory concentration (IC50) amounted to 190 nM.

As for `C[N+](C)(Cc1ccc(NC(=O)c2cc3cc(Br)ccc3[nH]2)cc1)C1CCOCC1` [Cpd 160, {4-[(5-bromo-1H-indole-2-carbonyl)-amino]-benzyl}-dimethyl-(tetrahydro-pyran-4-yl)-ammonium iodide], the IC50 turned out to be 290 nM.

Turning to `C[N+](C)(Cc1ccc(NC(=O)c2cn(Cc3ccccc3)c3ccccc23)cc1)C1CCOCC1` [Cpd 162, {4-[(1-benzyl-1H-indole-3-carbonyl)-amino]-benzyl}-dimethyl-(tetrahydro-pyran-4-yl)-ammonium iodide], the IC50 was determined as 1600 nM.

As to `Cn1c(C(=O)Nc2ccc(C[N+](C)(C)C3CCCCC3)cc2)cc2ccccc21` [Cpd 163, cyclohexyl-dimethyl-{4-[(1-methyl-1H-indole-2-carbonyl)-amino]-benzyl}-ammonium iodide], the 50% inhibitory concentration (IC50) turned out to be 620 nM.

For `C[N+](C)(Cc1ccc(NC(=O)c2cc3cc(Cl)ccc3[nH]2)cc1)C1CCCCC1` [Cpd 164, {4-[(5-chloro-1H-indole-2-carbonyl)-amino]-benzyl}-cyclohexyl-dimethyl-ammonium iodide], the half-inhibitory concentration (IC50) worked out at 200 nM.

For the compound `C[N+](C)(Cc1ccc(NC(=O)c2cc3cc(Cl)ccc3[nH]2)cc1)C[C@@H]1CCCO1` [Cpd 165, (2S)-{4-[(5-chloro-1H-indole-2-carbonyl)-amino]-benzyl}-dimethyl-(tetrahydro-furan-2-ylmethyl)-ammonium iodide], the concentration for half-maximal inhibition (IC50) worked out at 3300 nM.

As to `C[N+](C)(Cc1ccc(NC(=O)c2cc3cc(Cl)ccc3[nH]2)cc1)CC1CC2CCC1C2` (centres unmarked) [Cpd 166, bicyclo[2.2.1]hept-2-ylmethyl-{4-[(5-chloro-1H-indole-2-carbonyl)-amino]-benzyl}-dimethyl-ammonium iodide], the 50% inhibitory concentration (IC50) is 110 nM.

Consider `C[N+](C)(Cc1ccc(NC(=O)C2=Cc3cc(Cl)c(Cl)cc3OCC2)cc1)C1CCOCC1` [Cpd 167, {4-[(7,8-dichloro-2,3-dihydro-benzo[b]oxepine-4-carbonyl)-amino]-benzyl}-dimethyl-(tetrahydro-pyran-4-yl)-ammonium iodide], for which the IC50 stood at 240 nM.

In the case of `C[N+](C)(Cc1ccc(NC(=O)C2=Cc3cc(Cl)c(Cl)cc3OCC2)cc1)C1CCCCC1` [Cpd 168, cyclohexyl-{4-[(7,8-dichloro-2,3-dihydro-benzo[b]oxepine-4-carbonyl)-amino]-benzyl}-dimethyl-ammonium iodide], the half-inhibitory concentration (IC50) turned out to be 1000 nM.

Take `C[N+](C)(Cc1ccc(NC(=O)C2=Cc3cc(Cl)c(Cl)cc3OCC2)cc1)C1CC2CCC1C2` (centres unmarked) [Cpd 169, bicyclo[2.2.1]hept-2-yl-{4-[(7,8-dichloro-2,3-dihydro-benzo[b]oxepine-4-carbonyl)-amino]-benzyl}-dimethyl-ammonium iodide]: the IC50 worked out at 240 nM.

In the case of `C[N+](C)(Cc1ccc(NC(=O)C2=Cc3cc(Cl)c(Cl)cc3OCC2)cc1)C1CCSC1` (centres unmarked) [Cpd 171, {4-[(7,8-dichloro-2,3-dihydro-benzo[b]oxepine-4-carbonyl)-amino]-benzyl}-dimethyl-(tetrahydro-thiophen-3-yl)-ammonium iodide], the half-inhibitory concentration (IC50) is 560 nM.

Turning to `C[N+](C)(Cc1ccc(NC(=O)c2ccnc(Cl)c2)cc1)C1CCOCC1` [Cpd 173, {4-[(2-chloro-pyridine-4-carbonyl)-amino]-benzyl}-dimethyl-(tetrahydro-pyran-4-yl)-ammonium iodide], the concentration for half-maximal inhibition (IC50) was determined as 8100 nM.

Regarding `C[N+](C)(Cc1ccc(NC(=O)c2cc(Cl)sc2Cl)cc1)C1CCOCC1` [Cpd 175, {4-[(2,5-dichloro-thiophene-3-carbonyl)-amino]-benzyl}-dimethyl-(tetrahydro-pyran-4-yl)-ammonium iodide], the IC50 was 1500 nM.

`C[N+](C)(Cc1ccc(NC(=O)c2cc3ccccc3s2)cc1)C1CCOCC1` [Cpd 176, {4-[(benzo[b]thiophene-2-carbonyl)-amino]-benzyl}-dimethyl-(tetrahydro-pyran-4-yl)-ammonium iodide]: the IC50 was 260 nM.

`C[N+](C)(Cc1ccc(NC(=O)c2cc3ccccc3s2)cc1)C1CCCCC1` [Cpd 177, {4-[(benzo[b]thiophene-2-carbonyl)-amino]-benzyl}-cyclohexyl-dimethyl-ammonium iodide]: the IC50 stood at 170 nM.

Take `C[N+](C)(Cc1ccc(NC(=O)c2sc3ccccc3c2Cl)cc1)C1CCCCC1` [Cpd 178, {4-[(3-chloro-benzo[b]thiophene-2-carbonyl)-amino]-benzyl}-cyclohexyl-dimethyl-ammonium iodide]: the concentration for half-maximal inhibition (IC50) was determined as 8800 nM.

In a further experiment the test system is Ovalbumin-induced Allergic Rhinitis. The experiment can be described thus: Ovalbumin-induced allergic rhinitis in mice, prophylactic effect. The format is in vivo, BALB/c mice. Conditions: positive control, dose not given. The procedure: BALB/c mice were sensitized by i.p. injection of OVA emulsified in alum (Day 0, 5, 14, 21). Groups of mice were each challenged by intranasal injection of OVA (Day 22-35, 38). Control group mice received an equal volume of vehicle by intranasal injection. Nasal symptoms (number of sneezes and episodes of nose rubbing by the front paws) were counted during the 5 min period following the last intranasal injection (Day 38). […] The histamine receptor antagonist […]® was used as a positive control.
As to `CN1CCCC(n2nc(Cc3ccc(Cl)cc3)c3ccccc3c2=O)CC1` (centres unmarked) [Astelin, reference compound], the “inhibition of nasal symptoms (rubbing)” value came out at 89% and the “inhibition of nasal symptoms (sneezing)” value is 51%.
